From patent publication US10945932B2, “Prebiotic oral care compositions containing carboxylic acids” (COLGATE-PALMOLIVE COMPANY, priority 2013, dated 2021)
Read-outs that look alike come from different tables or passages of the source.

Assays:
[1] = system: Streptococcus mutans; conditions: S mutans, BHI
Protocol: (§5) Late exponential growth phase liquid cultures were prepared by transferring the respective bacterium from blood agar plates to BHI and overnight incubation at 37° C. in an anaerobic atmosphere for A. viscosus, V. parvula, F. nucleatum, P. gingivalis, P. intermedia, T forsythia, A. naeslundii, and C. sputigena, and in a 5% CO2 environment for S. salivarius, S. sanguinis, S. mitis, A. actinomycetemcomitans, S. mutans, S. sobrinus and S. gordonii. Overnight cultures were transferred to BHI and adjusted to a concentration of 1×10^7 CFU/ml (colony forming units per ml) by measuring the optical density at 600 nm (OD600) (BioRad SmartSpec 3000). For each strain, 200 μl of the bacterial suspension was added to a 96-well plate containing 20 μl of the respective carboxylic acids. Final concentrations of the carboxylic acids were set to 5, 10, 20 and 25 μmol/ml. […] Plates were incubated as previously described.
(§6) For each combination of bacterium/carboxylic acid, and for each of their respective controls (i.e. the particular bacterium in the nutritionally rich medium with no carboxylic acid), the optical density was measured at 630 nm (OD630) at 0 h, 24 h and 48 h (Thermo Scientific Multiskan Ascent). Additionally, the OD630 for combinations of bacterium/carboxylic acid grown in a 5% CO2 environment were also measured every hour between 0 h and 9 h.
(§7) The experiment was carried out on three different days (thus providing 3 biological replicas) and on each day the experiment was carried out in quadruple (thus providing 4 technical replicas) for each combination of bacterium with carboxylic acid and for each control. For each day and for each combination, the average (mean) of the values obtained (as detailed above) for the four technical replicas was calculated to provide a single value for each combination on each day.

[2] = system: Fusobacterium nucleatum; conditions: F nucleatum, BHI
[3] = system: beneficial oral bacteria and pathogenic oral bacteria; assay: Metabolic activity, prebiotic effect over the whole panel; type: cell-based; conditions: 48 hrs; threshold value of 2
Protocol: (§1) The extent of metabolic activity of the tested bacteria in the presence of the above-mentioned acids after 24 hours and 48 hours was investigated through a high throughput phenotype microarray system (PM) for microbial cells (Biolog Inc.). Each PM can contain up to 95 different biochemical compounds (e.g. organic acids) that may act as substrates for bacteria as well as one negative control, not containing the substrates. Microarray plates were used in which the different wells of each plate were pre-loaded (by the manufacturer, Biolog Inc.) with different organic acids to be tested. Each bacterial species was tested using a separate microarray plate. Thus, a single bacterial species was tested with a variety of organic acids on each particular plate. The microarrays are based on redox technology, using cell respiration as a universal reporter. […] The observation of this color change indicates which of the substrates improve the metabolic activity and health of the cells.
(§2) Each bacterial species was collected from blood agar plates (incubated for 48 hours anaerobically at 37° C.) and transferred to an IF-0 Base inoculation fluid (Biolog Inc.), which is a nutritionally poor medium. […] A 1:5 dilution of this suspension was prepared by mixing 3 mL of the 42% transmittance cell suspension with 15 mL of an inoculation fluid (which inoculation fluid was formed by mixing 11.6 mL sterile water, 62.5 mL IF-0 base inoculation fluid and 0.9 mL of the tetrazolium dye “Biolog Redox Dye mix D”), resulting in a final cell density which was equal to 85% transmittance using a BioRad SmartSpec 3000 Photometer. For each of the acids tested, the microarray plate (obtained from the supplier (Biolog Inc.) with acid already present in the relevant wells in powder form) was directly inoculated with 100 μL/well of this 85% transmittance cell suspension.
(§3) All plates were incubated in an anaerobic atmosphere at 37° C. Color changes were measured spectrophotometrically at 492 nm (Thermo Scientific Multiskan Ascent) at 24 hrs and 48 hrs using the same plate at both time points.
(§4) The controls were also carried out three times, as above.

[4] = system: Actinomyces naeslundii; conditions: A naeslundii, BHI
Protocol: as §5, §6, §7

[5] = system: Streptococcus salivarius; conditions: S salivarius, BHI
Protocol: as §5, §6, §7

[6] = system: Porphyromonas gingivalis; conditions: P gingivalis, BHI
Protocol: as §5, §6, §7

[7] = system: Streptococcus gordonii; conditions: S gordonii, BHI
Protocol: as §5, §6, §7

[8] = system: Capnocytophaga sputigena; conditions: C sputigena, BHI
Protocol: as §5, §6, §7

[9] = system: Streptococcus sanguinis; conditions: S sanguinis, BHI
Protocol: as §5, §6, §7

[10] = system: Actinomyces viscosus; conditions: A viscosus, BHI
Protocol: as §5, §6, §7

[11] = system: Streptococcus mitis; assay: Metabolic activity, Biolog phenotype microarray; type: cell-based; conditions: S mitis
Protocol: as §1, §2, §3, §4

[12] = system: Veillonella parvula; assay: Metabolic activity, Biolog phenotype microarray; type: cell-based; conditions: V parvula
Protocol: as §1, §2, §3, §4

[13] = system: Tannerella forsythia; assay: Metabolic activity, Biolog phenotype microarray; type: cell-based; conditions: T forsythia
Protocol: as §1, §2, §3, §4

[14] = system: Streptococcus mutans; assay: Metabolic activity, Biolog phenotype microarray; type: cell-based; conditions: S mutans
Protocol: as §1, §2, §3, §4

[15] = system: Capnocytophaga sputigena; assay: Metabolic activity, Biolog phenotype microarray; type: cell-based; conditions: C sputigena
Protocol: as §1, §2, §3, §4

[16] = system: Streptococcus gordonii; assay: Metabolic activity, Biolog phenotype microarray; type: cell-based; conditions: S gordonii
Protocol: as §1, §2, §3, §4

[17] = system: Streptococcus salivarius; assay: Metabolic activity, Biolog phenotype microarray; type: cell-based; conditions: S salivarius
Protocol: as §1, §2, §3, §4

[18] = system: Aggregatibacter actinomycetemcomitans; assay: Metabolic activity, Biolog phenotype microarray; type: cell-based; conditions: A actinomycetemcomitans
Protocol: as §1, §2, §3, §4

[19] = system: Actinomyces naeslundii; assay: Metabolic activity, Biolog phenotype microarray; type: cell-based; conditions: A naeslundii
Protocol: as §1, §2, §3, §4

[20] = system: Fusobacterium nucleatum; assay: Metabolic activity, Biolog phenotype microarray; type: cell-based; conditions: F nucleatum
Protocol: as §1, §2, §3, §4

[21] = system: Actinomyces viscosus; assay: Metabolic activity, Biolog phenotype microarray; type: cell-based; conditions: A viscosus
Protocol: as §1, §2, §3, §4

[22] = system: Prevotella intermedia; assay: Metabolic activity, Biolog phenotype microarray; type: cell-based; conditions: P intermedia
Protocol: as §1, §2, §3, §4

[23] = system: Porphyromonas gingivalis; assay: Metabolic activity, Biolog phenotype microarray; type: cell-based; conditions: P gingivalis
Protocol: as §1, §2, §3, §4

[24] = system: Streptococcus sobrinus; assay: Metabolic activity, Biolog phenotype microarray; type: cell-based; conditions: S sobrinus
Protocol: as §1, §2, §3, §4

[25] = system: Streptococcus sanguinis; assay: Metabolic activity, Biolog phenotype microarray; type: cell-based; conditions: S sanguinis
Protocol: as §1, §2, §3, §4

SMILES: N[C@@H](CC(=O)O)C(=O)O [L-aspartic acid]
- extent of growth, maximal OD630 over 48 hr divided by maximal OD of control (control = 1) ([1]; 5 μmol/ml): 0.9466
- extent of growth, maximal OD630 over 48 hr divided by maximal OD of control (control = 1) ([1]; 10 μmol/ml): 0.9230
- extent of growth, maximal OD630 over 48 hr divided by maximal OD of control (control = 1) ([1]; 20 μmol/ml): 0.9036
- extent of growth, maximal OD630 over 48 hr divided by maximal OD of control (control = 1) ([1]; 25 μmol/ml): 0.9149
- extent of growth, maximal OD630 over 48 hr divided by maximal OD of control (control = 1) ([2]; 5 μmol/ml): 0.7922
- extent of growth, maximal OD630 over 48 hr divided by maximal OD of control (control = 1) ([2]; 10 μmol/ml): 0.7973
- extent of growth, maximal OD630 over 48 hr divided by maximal OD of control (control = 1) ([2]; 20 μmol/ml): 0.8395
- extent of growth, maximal OD630 over 48 hr divided by maximal OD of control (control = 1) ([2]; 25 μmol/ml): 0.8720
- prebiotic effect (metabolic activity) [3]: exhibited prebiotic effects
- extent of growth, maximal OD630 over 48 hr divided by maximal OD of control (control = 1) ([4]; 5 μmol/ml): 0.8893
- extent of growth, maximal OD630 over 48 hr divided by maximal OD of control (control = 1) ([4]; 10 μmol/ml): 0.8774
- extent of growth, maximal OD630 over 48 hr divided by maximal OD of control (control = 1) ([4]; 20 μmol/ml): 0.9021
- extent of growth, maximal OD630 over 48 hr divided by maximal OD of control (control = 1) ([4]; 25 μmol/ml): 0.8435
- extent of growth, maximal OD630 over 48 hr divided by maximal OD of control (control = 1) ([5]; 5 μmol/ml): 0.9808
- extent of growth, maximal OD630 over 48 hr divided by maximal OD of control (control = 1) ([5]; 10 μmol/ml): 0.9975
- extent of growth, maximal OD630 over 48 hr divided by maximal OD of control (control = 1) ([5]; 20 μmol/ml): 1.0719
- extent of growth, maximal OD630 over 48 hr divided by maximal OD of control (control = 1) ([5]; 25 μmol/ml): 0.9943
- extent of growth, maximal OD630 over 48 hr divided by maximal OD of control (control = 1) ([6]; 5 μmol/ml): 1.0608
- extent of growth, maximal OD630 over 48 hr divided by maximal OD of control (control = 1) ([6]; 10 μmol/ml): 1.0376
- extent of growth, maximal OD630 over 48 hr divided by maximal OD of control (control = 1) ([6]; 20 μmol/ml): 1.0578
- extent of growth, maximal OD630 over 48 hr divided by maximal OD of control (control = 1) ([6]; 25 μmol/ml): 1.0084
- extent of growth, maximal OD630 over 48 hr divided by maximal OD of control (control = 1) ([7]; 5 μmol/ml): 0.9448
- extent of growth, maximal OD630 over 48 hr divided by maximal OD of control (control = 1) ([7]; 10 μmol/ml): 0.9400
- extent of growth, maximal OD630 over 48 hr divided by maximal OD of control (control = 1) ([7]; 20 μmol/ml): 0.9583
- extent of growth, maximal OD630 over 48 hr divided by maximal OD of control (control = 1) ([7]; 25 μmol/ml): 0.9466
- extent of growth, maximal OD630 over 48 hr divided by maximal OD of control (control = 1) ([8]; 5 μmol/ml): 0.9521
- extent of growth, maximal OD630 over 48 hr divided by maximal OD of control (control = 1) ([8]; 10 μmol/ml): 0.9529
- extent of growth, maximal OD630 over 48 hr divided by maximal OD of control (control = 1) ([8]; 20 μmol/ml): 0.9776
- extent of growth, maximal OD630 over 48 hr divided by maximal OD of control (control = 1) ([8]; 25 μmol/ml): 0.9489
- extent of growth, maximal OD630 over 48 hr divided by maximal OD of control (control = 1) ([9]; 5 μmol/ml): 0.8662
- extent of growth, maximal OD630 over 48 hr divided by maximal OD of control (control = 1) ([9]; 10 μmol/ml): 0.8606
- extent of growth, maximal OD630 over 48 hr divided by maximal OD of control (control = 1) ([9]; 20 μmol/ml): 0.8622
- extent of growth, maximal OD630 over 48 hr divided by maximal OD of control (control = 1) ([9]; 25 μmol/ml): 0.8613
- extent of growth, maximal OD630 over 48 hr divided by maximal OD of control (control = 1) ([10]; 5 μmol/ml): 0.6862
- extent of growth, maximal OD630 over 48 hr divided by maximal OD of control (control = 1) ([10]; 10 μmol/ml): 0.6163
- extent of growth, maximal OD630 over 48 hr divided by maximal OD of control (control = 1) ([10]; 20 μmol/ml): 0.5787
- extent of growth, maximal OD630 over 48 hr divided by maximal OD of control (control = 1) ([10]; 25 μmol/ml): 0.5023
- metabolic activity, OD at 492 nm divided by OD of control (control = 1) ([11]; 24 hrs): 1.0323
- metabolic activity, OD at 492 nm divided by OD of control (control = 1) ([11]; 48 hrs): 0.9065
- metabolic activity, OD at 492 nm divided by OD of control (control = 1) ([12]; 24 hrs): 1.8448
- metabolic activity, OD at 492 nm divided by OD of control (control = 1) ([12]; 48 hrs): 2.2760
- metabolic activity, OD at 492 nm divided by OD of control (control = 1) ([13]; 24 hrs): 0.9565
- metabolic activity, OD at 492 nm divided by OD of control (control = 1) ([13]; 48 hrs): 0.9575
- metabolic activity, OD at 492 nm divided by OD of control (control = 1) ([14]; 24 hrs): 0.9715
- metabolic activity, OD at 492 nm divided by OD of control (control = 1) ([14]; 48 hrs): 0.8709
- metabolic activity, OD at 492 nm divided by OD of control (control = 1) ([15]; 24 hrs): 0.7060
- metabolic activity, OD at 492 nm divided by OD of control (control = 1) ([15]; 48 hrs): 0.7655
- metabolic activity, OD at 492 nm divided by OD of control (control = 1) ([16]; 24 hrs): 0.8729
- metabolic activity, OD at 492 nm divided by OD of control (control = 1) ([16]; 48 hrs): 0.8488
- metabolic activity, OD at 492 nm divided by OD of control (control = 1) ([17]; 24 hrs): 0.9496
- metabolic activity, OD at 492 nm divided by OD of control (control = 1) ([17]; 48 hrs): 0.8503
- metabolic activity, OD at 492 nm divided by OD of control (control = 1) ([18]; 24 hrs): 1.4358
- metabolic activity, OD at 492 nm divided by OD of control (control = 1) ([18]; 48 hrs): 1.6253
- metabolic activity, OD at 492 nm divided by OD of control (control = 1) ([19]; 24 hrs): 0.8814
- metabolic activity, OD at 492 nm divided by OD of control (control = 1) ([19]; 48 hrs): 0.8283
- metabolic activity, OD at 492 nm divided by OD of control (control = 1) ([20]; 24 hrs): 0.9201
- metabolic activity, OD at 492 nm divided by OD of control (control = 1) ([20]; 48 hrs): 0.9448
- metabolic activity, OD at 492 nm divided by OD of control (control = 1) ([21]; 24 hrs): 0.9434
- metabolic activity, OD at 492 nm divided by OD of control (control = 1) ([21]; 48 hrs): 0.9275
- metabolic activity, OD at 492 nm divided by OD of control (control = 1) ([22]; 24 hrs): 0.9390
- metabolic activity, OD at 492 nm divided by OD of control (control = 1) ([22]; 48 hrs): 0.9154
- metabolic activity, OD at 492 nm divided by OD of control (control = 1) ([23]; 24 hrs): 0.8910
- metabolic activity, OD at 492 nm divided by OD of control (control = 1) ([23]; 48 hrs): 0.9017
- metabolic activity, OD at 492 nm divided by OD of control (control = 1) ([24]; 24 hrs): 1.0053
- metabolic activity, OD at 492 nm divided by OD of control (control = 1) ([24]; 48 hrs): 0.9338
- metabolic activity, OD at 492 nm divided by OD of control (control = 1) ([25]; 24 hrs): 0.9451
- metabolic activity, OD at 492 nm divided by OD of control (control = 1) ([25]; 48 hrs): 0.9195
